Consider seven molecules from ChEMBL document CHEMBL3400106, “TR-FRET binding assay targeting unactivated form of Bruton's tyrosine kinase” (Bioorg Med Chem Lett, 2015).

Data set [1] deals with T1, Tyrosine-protein kinase BTK (Homo sapiens, UniProt Q06187). Kind of data set: Inhibition of biotinylated and unactivated BTK (unknown origin) using FITC-labeled Srctide peptide substrate and ATP.
The target in data set [2] is T1, Tyrosine-protein kinase BTK. The experiment in a line: Binding affinity to biotinylated and unactivated BTK (unknown origin) incubated for 1 hr by TR-FRET assay.
For data set [3] the target is unchanged. The experiment in a line: Binding affinity to biotinylated and activated BTK (unknown origin) at 0.001 to 0.1 uM incubated for 1 hr by TR-FRET assay.
The target is the same in data set [4]. The experiment in a line: Inhibition of biotinylated and activated BTK (unknown origin) using FITC-labeled Srctide peptide substrate and ATP.
Data set [5] has the same target. Kind of data set: Binding affinity to biotinylated and unactivated BTK (unknown origin) at 0.001 to 0.1 uM incubated for 1 hr by TR-FRET assay.
Data set [6] has the same target. The experiment in a line: Inhibition of unactivated BTK (unknown origin) using 30 uM probe 5-(4-(4-(6-(3-(4-tert-butylbenzamido)-2-methylphenyl)-4-methyl-3-oxo-3,4-dihydropyrazin-2-ylamino)benzoyl)piperazine-1-carbothioamido)-2-(6-hydroxy-3-oxo-3H-xanthen-9-yl)benzoic acid.
The target is the same in data set [7]. The experiment in a line: Inhibition of biotinylated and activated BTK (unknown origin) up to 100 uM using FITC-labeled Srctide peptide substrate and ATP.
The nature of data set [8]: Chemical stability in solution. The class given is physicochemical.

The source made the active and inactive calls. No cut-off for these calls is given here.

T1 sequence (Q06187 whole entry): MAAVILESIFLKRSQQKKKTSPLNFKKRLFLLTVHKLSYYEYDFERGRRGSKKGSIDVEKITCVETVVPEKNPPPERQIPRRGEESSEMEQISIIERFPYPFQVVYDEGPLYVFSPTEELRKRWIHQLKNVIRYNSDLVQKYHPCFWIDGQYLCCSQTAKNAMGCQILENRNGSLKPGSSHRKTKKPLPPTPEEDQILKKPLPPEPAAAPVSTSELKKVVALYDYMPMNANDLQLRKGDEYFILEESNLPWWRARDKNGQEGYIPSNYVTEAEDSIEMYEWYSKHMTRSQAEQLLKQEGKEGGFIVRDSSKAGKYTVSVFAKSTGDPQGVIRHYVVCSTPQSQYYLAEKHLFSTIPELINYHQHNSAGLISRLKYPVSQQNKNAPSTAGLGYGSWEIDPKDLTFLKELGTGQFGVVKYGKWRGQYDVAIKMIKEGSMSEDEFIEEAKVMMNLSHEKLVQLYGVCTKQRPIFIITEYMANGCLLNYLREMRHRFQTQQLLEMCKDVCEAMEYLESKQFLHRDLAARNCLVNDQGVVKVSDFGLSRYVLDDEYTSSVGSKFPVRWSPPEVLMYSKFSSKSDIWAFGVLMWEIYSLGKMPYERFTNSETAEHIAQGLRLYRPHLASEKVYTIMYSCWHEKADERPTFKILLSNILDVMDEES

With `Cc1c(NC(=O)c2ccc(C(C)(C)C)cc2)cccc1-c1cn(C)c(=O)c(Nc2ccc(C(=O)N3CCN(C(=S)Nc4ccc(-c5c6ccc(=O)cc-6oc6cc(O)ccc56)c(C(=O)O)c4)CC3)cc2)n1`, the values for the IC50 in data set [1] and in data set [4] were 0.61 nM and 69 nM, respectively. This molecule also yielded a Kd in data set [2] of 2.5 nM. For the same molecule, the outcome in data set [3] was inactive. The result in data set [5] was Active.

Molecule `CC(=O)Nc1cccc(NC(=O)c2ccc(CN3CCN(C)CC3)cc2)c1` came in with an IC50 in data set [1] of 4700 nM. Also, in data set [6], the inhibition was above 10%. For the same molecule, in data set [7], the inhibition entry is “inactive”.

For `Cc1c(NC(=O)c2ccc(C(C)(C)C)cc2)cccc1-c1cn(C)c(=O)c(Nc2ccc(C(=O)NCCCCNC(=S)Nc3ccc(-c4c5ccc(=O)cc-5oc5cc(O)ccc45)c(C(=O)O)c3)cc2)n1`, the IC50 in data set [1] was determined as 4.3 nM; in data set [4], 189 nM. The molecule also gave a dissociation constant (Kd) in data set [2] of 5.5 nM. Besides, the outcome in data set [3] was inactive. Also, in data set [5], the outcome was Active. The Stability entry in data set [8] is “Unstable”.

For `Cc1c(NC(=O)c2ccc(C(C)(C)C)cc2)cccc1-c1cn(C)c(=O)c(Nc2ccc(C(=O)NCCNC(=S)Nc3ccc(-c4c5ccc(=O)cc-5oc5cc(O)ccc45)c(C(=O)O)c3)cc2)n1`, the IC50 stood at 5.6 nM in data set [1] and 290 nM in data set [4]. In addition, binding in data set [2] was characterised by a dissociation constant (Kd) of 6.1 nM. In addition, in data set [3], the outcome was inactive. Also, the outcome in data set [5] was Active. Besides, the Stability entry in data set [8] is “Unstable”.

Consider `Cc1c(NC(=O)c2ccc(C(C)(C)C)cc2)cccc1-c1cn(C)c(=O)c(Nc2ccc(C(=O)N3CCOC(CNC(=S)Nc4ccc(-c5c6ccc(=O)cc-6oc6cc(O)ccc56)c(C(=O)O)c4)C3)cc2)n1` (stereo unspecified), for which the values for the IC50 in data set [1] and in data set [4] were 4.8 nM and 350 nM, respectively. The same molecule registered a Kd in data set [2] of 3.8 nM. For the same molecule, in data set [3], the outcome was inactive. In data set [5], the outcome was Active.

As to `Cc1c(NC(=O)c2ccc(C(C)(C)C)cc2)cccc1-c1cn(C)c(=O)c(Nc2ccc(C(=O)NCCOCCOCCNC(=S)Nc3ccc(-c4c5ccc(=O)cc-5oc5cc(O)ccc45)c(C(=O)O)c3)cc2)n1`, the half-inhibitory concentration (IC50) in data set [1] stood at 7.8 nM; in data set [4] it was 305 nM. For the same molecule, in data set [2], the Kd is 8.8 nM. Besides, the result in data set [3] was inactive. The result in data set [5] was Active. The Stability entry in data set [8] is given as “Unstable”.

As to `Cc1c(NC(=O)c2ccc(C(C)(C)C)cc2)cccc1-c1cn(C)c(=O)c(Nc2ccc(C(=O)NCCCNC(=S)Nc3ccc(-c4c5ccc(=O)cc-5oc5cc(O)ccc45)c(C(=O)O)c3)cc2)n1`, the IC50 came out at 3.2 nM in data set [1] and 208 nM in data set [4]. For the same molecule, in data set [2], the Kd came to 6.2 nM. The result in data set [3] was inactive. For the same molecule, the result in data set [5] was Active.
